The values below come from US9567301B2, “Pyrrol-1-yl benzoic acid derivatives useful as myc inhibitors” (Whitehead Institute for Biomedical Research, priority 2012, dated 2017).

One assay concerns H2171 cells. Description: Cell viability assay (ATPlite), H2171. The format is cell-based, human. Particulars: cell viability, three days, ATPlite, NA: inactive under assay conditions. How it is done:
(§1) This assay was used for the H2171 and MM1S cell data shown in Table 2, and for the Jurkat (an immortalized line of human T lymphocyte cells), Ly1 (OCI-Ly1 human non-Hodgkin lymphoma cell line), Ly4 (OCI-Ly4 human non-Hodgkin lymphoma cell line), H2172 (NCI-H2172 human non-small cell lung cancer cell line), and CA-46 (a human Burkitt's lymphoma cell line) cell data shown in Table 3 and FIG. 12. Cells were counted and adjusted to 60,000 cells/mL. Using a Biotek EL406, 50 μL of cells are media were distributed into 384 well white plates from Thermo. Immediately after plating, compound in DMSO was distributed to plates. For large plate sets, cells were returned to 37° C. incubator while not in use.
(§2) Compounds were added to plates using a 100 nL 384 well pin transfer manifold on a Janus workstation. Stocks were arrayed in 10 point quadruplicate dose response in DMSO stock in 384 well Greiner compound plates. After addition of compound, plates were incubated for three days in a 37° C. incubator.
(§3) Cell viability was read out using ATPlite from Perkin Elmer. Plates were removed from the incubator and brought to room temperature prior to use. Lyophilized powder was resuspended in lysis buffer and diluted 1:2 with DI water. 25 μL of this solution was added to each well using the Biotek liquid handler. Plates were sealed with adherent aluminum seals prior to vortexing and spinning down at 1000 g for 1 minute. Plates were incubated for 15 minutes at room temperature before signal was read on an Envision Plate Reader.

A further assay concerns the target c-Myc/Max/Ebox DNA (Homo sapiens, UniProt P01106). Description: c-Myc/Max/Ebox DNA AlphaScreen assay. In kind it is binding. Also noted: An exemplary assay uses full-length human c-Myc and Max proteins; his6 (cleaved yes); made in house. Particulars: c-Myc/Max/Ebox DNA AlphaScreen; NA: inactive under assay conditions; read-out: Biochemical IC50. How it is done: This protocol was used to generate the biochemical data in Table 2 and FIG. 11. The primary AlphaScreen assay is amenable to 384-well and 1536-well plate formats for HTS. Human his6-c-Myc and his6-Max were used with biotinylated DNA containing a single Ebox sequence (biotin[…]) purchased from MWG Operon. Free c-Myc was generated from his6-c-Myc through thrombin cleavage of the his6 tag. For 384-well plate assays, 10 μL of a 2× solution of free c-Myc (25 nM final), Ni++-coated Acceptor Bead (25 μg/ml final), and biotinylated Ebox oligo (10 nM final) were added to 384-well plates with a Biotek EL406 liquid handler. 100 nL of compounds from stock plates were added by pin transfer using a Janus Workstation (PerkinElmer), allowing the compounds to interact with c-Myc prior to c-Myc binding with Max. In the current assay, DMSO was not allowed to exceed 2% v/v of the assay. 10 μl of 2× master mix containing streptavidin-coated donor beads (25 μg/ml final) and his6-Max (1.25 nM final) were added. AlphaScreen measurements were performed on an Envision 2104 (PerkinElmer) utilizing the manufacturer's protocol. The assay can also be performed in 1536-plate format with 8 μL total volume using two 4 μL additions (instead of […] and 10 μL respectively).
Assays are performed with minor modifications from the manufacturer's protocol (PerkinElmer). Both master mixes were made in room temperature assay buffer (50 mM HEPES, 150 mM NaCl, 0.2% w/v BSA, 0.02% w/v Tween20, 40 μg/ml glycogen, 500 μM DTT, pH 8.0, DTT and glycogen added fresh). Alpha beads were added to respective master solutions and wrapped in foil. All subsequent steps were performed in low light conditions. Solution 1: 2× solution of components with final concentrations of cMyc (25 nM), Ni-coated Acceptor Bead (25 μg/ml), and biotinylated Ebox oligo (10 nM). Solution 2: 2× solution of streptavidin-coated donor beads (25 μg/ml final) and his6-Max (1.25 nM final). […] Solution 1 were added to 384-well plate (AlphaPlate-384, PerkinElmer) with Biotek EL406 liquid handler and the plates were centrifuged at 1000 rpm for 1 minute. 100 nL of compounds from stock plates were added by pin transfer using a Janus Workstation. 10 μL Solution 2 were added with the liquid handler. Plates were sealed with foil to block light exposure and prevent evaporation. Plates were centrifuged at 1000 rpm for 1 minute followed by 2 hour incubation. AlphaScreen measurements were performed on an Envision 2104 utilizing the manufacturer's protocol. Excitation was at 680 nm for donor bead release of singlet oxygen and emission was read with a bandpass filter from 520-620 nm. Glycogen: Roche Diagnostics #10901393001. Plate 1536: Perkin Elmer, 6004350. Plate 384: Perkin Elmer, 6005350. Nickel-His Alpha Beads: 6760619R.
(Bead proximity is the source of the signal in Alpha formats.)

The test system of the next assay is MM1S cells. The assay can be described thus: Cell viability assay (ATPlite), MM1S. The format is cell-based, human. The conditions noted are these: cell viability, three days, ATPlite, NA: inactive under assay conditions. Here is the method: as §1, §2, §3
A general note: ATP-based viability assays read luminescence as a measure of living cells.

Chain of c-Myc/Max/Ebox DNA (P01106 16-454): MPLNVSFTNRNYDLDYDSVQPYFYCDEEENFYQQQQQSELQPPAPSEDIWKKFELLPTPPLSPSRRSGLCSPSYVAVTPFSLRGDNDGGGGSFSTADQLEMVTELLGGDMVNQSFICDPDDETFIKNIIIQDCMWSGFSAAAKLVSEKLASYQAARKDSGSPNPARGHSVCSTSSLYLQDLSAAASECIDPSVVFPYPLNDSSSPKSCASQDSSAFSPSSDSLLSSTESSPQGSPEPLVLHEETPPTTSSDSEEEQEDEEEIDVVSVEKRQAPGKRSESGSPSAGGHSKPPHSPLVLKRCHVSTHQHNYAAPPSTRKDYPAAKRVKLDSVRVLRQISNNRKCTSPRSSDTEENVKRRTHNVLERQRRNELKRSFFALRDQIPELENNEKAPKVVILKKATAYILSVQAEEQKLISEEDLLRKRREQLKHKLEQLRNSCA

In general, EC50 refers to the concentration at which the effect is half-maximal. For orientation: IC50 means the concentration needed to halve the response being measured. On to `Cc1ccc(C)n1-c1ccc(C(=O)O)c(Cl)c1` [Compound 6], for which the EC50 with H2171 cells (Homo sapiens, NCI-H2171, 72 h) turned out to be 76.3 µM; with MM1S cells (Homo sapiens, MM1.S, 72 h) it was 208 µM. Further, on c-Myc/Max/Ebox DNA, the IC50 amounted to 81.5 µM.
In the case of `Cc1ccc(-c2ccccc2)n1-c1ccc(O)c(C(=O)O)c1` [Compound 12], the EC50 with H2171 cells (Homo sapiens, NCI-H2171, 72 h) amounted to 123 µM; in the assay with MM1S cells (Homo sapiens, MM1.S, 72 h) it was 79.3 µM. For the same compound, the IC50 on c-Myc/Max/Ebox DNA was determined as 61.8 µM.
On the same counts, the results for `CCOC(=O)c1ccc(-n2c(C)ccc2-c2ccccc2)cc1` [Compound 13] are 54.4 µM, 69.9 µM and 144 µM.
`COC(=O)c1ccccc1-n1c(C)ccc1C` [Compound 14]: the EC50 in the assay on H2171 cells (Homo sapiens, NCI-H2171, 72 h) was found to be 86.3 µM; in the assay with MM1S cells (Homo sapiens, MM1.S, 72 h) it was 223 µM. The IC50 on c-Myc/Max/Ebox DNA stood at 97.3 µM.
On the same counts, the results for `O=C(O)c1ccc(-n2cccc2)cc1O` [Compound 16] are 104 µM, 130 µM and 165 µM.
In the same order, the values of `CCCOC(=O)c1ccc(-n2c(CCC(=O)O)ccc2-c2ccccc2)cc1O` [Compound 21] are 89.1 µM, 75.3 µM and 96 µM.
On the same counts, the results for `CCOC(=O)c1ccc(-n2c(CCC(=O)O)ccc2-c2cccs2)cc1O` [Compound 22] are 73.4 µM, 71.7 µM and 124 µM.
Turning to `CCOC(=O)c1ccc(-n2c(CCC(=O)O)ccc2-c2ccc(Br)cc2)cc1O` [Compound 23], the EC50 was 64.9 µM in the assay on H2171 cells (Homo sapiens, NCI-H2171, 72 h) and 58 µM with MM1S cells (Homo sapiens, MM1.S, 72 h). Moreover, at c-Myc/Max/Ebox DNA, the IC50 turned out to be 81.6 µM.
For `CCOC(=O)c1ccc(-n2c(CCC(=O)O)ccc2-c2ccc(OC)cc2)cc1O` [Compound 24], the EC50 in the assay on H2171 cells (Homo sapiens, NCI-H2171, 72 h) is 166 µM; with MM1S cells (Homo sapiens, MM1.S, 72 h), 83.2 µM. Besides, on c-Myc/Max/Ebox DNA, the half-maximal inhibitory concentration (IC50) came out at 116 µM.
Consider `CCOC(=O)c1ccc(-n2c(CCC(=O)O)ccc2-c2ccccc2)cc1O` [Compound 25], for which the EC50 is 101 µM in the assay on H2171 cells (Homo sapiens, NCI-H2171, 72 h) and 78.3 µM in the assay with MM1S cells (Homo sapiens, MM1.S, 72 h). The IC50 at c-Myc/Max/Ebox DNA worked out at 139 µM.
In the same order, the values of `Cc1nccn1-c1ccccc1C(=O)O` [Compound 26] are 6.27 µM, 11.5 µM and 442 µM.
As to `Cc1ccc(C)n1-c1ccc(C(=O)O)c(O)c1` [Compound 65], the EC50 with H2171 cells turned out to be 189 µM; with MM1S cells, 1440 µM. Moreover, on c-Myc/Max/Ebox DNA, the IC50 is 61.9 µM.
Consider `Cc1ccc(C)n1-c1ccccc1CC(=O)O` [Compound 68], for which the EC50 in the assay on H2171 cells (Homo sapiens, NCI-H2171, 72 h) is 52.9 µM; with MM1S cells (Homo sapiens, MM1.S, 72 h), 340 µM. Further, the IC50 at c-Myc/Max/Ebox DNA is 195 µM.
As for `Cc1ccc(C)n1-c1ccccc1/C=C/C(=O)O` [Compound 69], the EC50 in the assay with H2171 cells (Homo sapiens, NCI-H2171, 72 h) was determined as 115 µM; in the assay on MM1S cells (Homo sapiens, MM1.S, 72 h), 39 µM. The IC50 on c-Myc/Max/Ebox DNA was 156 µM.
Consider `Cc1ccc(C)n1-c1cc(C(=O)NN)ccc1C(=O)O` [Compound 70], for which the EC50 in the assay on H2171 cells was 43.7 µM; with MM1S cells (Homo sapiens, MM1.S, 72 h), 1240 µM. In addition, the IC50 at c-Myc/Max/Ebox DNA was 6.98 µM.
On to `Cc1ccc(C)n1-c1cc(C(=O)N/N=C/c2ccccc2)ccc1C(=O)O` [Compound 71], for which the EC50 in the assay on H2171 cells (Homo sapiens, NCI-H2171, 72 h) stood at 48.4 µM; in the assay on MM1S cells (Homo sapiens, MM1.S, 72 h), 261 µM. For the same compound, on c-Myc/Max/Ebox DNA, the IC50 was 103 µM.
`Cc1ccc(C)n1-c1cc(C(=O)NCCc2c[nH]cn2)ccc1C(=O)O` [Compound 72]: the EC50 in the assay on H2171 cells (Homo sapiens, NCI-H2171, 72 h) was 198 µM; with MM1S cells (Homo sapiens, MM1.S, 72 h), 2760 µM. In addition, the IC50 at c-Myc/Max/Ebox DNA worked out at 15.4 µM.
With `Cc1ccc(C)n1-c1cc(C(=O)NCCN2CCN(C)CC2)ccc1C(=O)O` [Compound 74], the EC50 is 120 µM in the assay with H2171 cells (Homo sapiens, NCI-H2171, 72 h) and 27600 µM in the assay on MM1S cells (Homo sapiens, MM1.S, 72 h). In addition, the IC50 on c-Myc/Max/Ebox DNA is 104 µM.
